Test systems include BT-549 breast; MALME-3M melanoma; MDA-MB-231 breast; MDA-MB-435; NCI/ADR-RES ovarian; SK-OV-3 ovarian; SNB-75 CNS; SR leukemia.
Holding throughout (assay): DTP human tumour cell line panel, 48 h

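Where inhibition never reached the appropriate level, the endpoint shown equals the highest concentration tested. Otherwise, values were interpolated linearly from a five-concentration, 48-hour dose response in 96-well plates. At the GI50, growth is halved. TGI is the concentration that stops growth completely.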

TGI and GI50 data for 19 molecules are collected here from PubChem BioAssay (NCI).

Take `CC(C)OP(=O)(CN(C)/C(F)=N\C(F)(F)F)OC(C)C`: the TGI in the experiment with BT-549 breast, in the experiment on MALME-3M melanoma, in the experiment with MDA-MB-231 breast, in the experiment with MDA-MB-435, with NCI/ADR-RES ovarian and in the experiment with SK-OV-3 ovarian was above 100 µM each time. Besides, the TGI – broadly, the concentration at which net growth stops – in the experiment with SNB-75 CNS is above 100 µM.

Turning to `CC(=O)OC1CC2CCC1(C)C2(C)C` (stereo not drawn), the TGI with MALME-3M melanoma, in the experiment with MDA-MB-231 breast, in the experiment with MDA-MB-435, with NCI/ADR-RES ovarian, in the experiment with SK-OV-3 ovarian and with SNB-75 CNS was above 100 µM in each case.

As to `O=C1c2ccccc2CC12Cc1cc3c(cc1C2=O)CCC3` (stereo not drawn), the TGI in the experiment on MALME-3M melanoma, in the experiment with MDA-MB-231 breast, in the experiment on MDA-MB-435, in the experiment on NCI/ADR-RES ovarian, in the experiment with SK-OV-3 ovarian and in the experiment with SNB-75 CNS was above 100 µM throughout. This molecule also showed a TGI in the experiment with SR leukemia above 100 µM.

For the molecule `CCOP(=O)(/C=C\n1cnc2c(=O)n(C(C)=O)c(N)nc21)OCC`, the TGI in the experiment on BT-549 breast, in the experiment with MDA-MB-231 breast, in the experiment on MDA-MB-435, in the experiment with NCI/ADR-RES ovarian, in the experiment with SK-OV-3 ovarian and in the experiment on SNB-75 CNS was above 100 µM each time.

As for `CC(=O)O[C@H]1C[C@]2(C)C(CCC3O[C@@]32C)[C@@]2(CC(c3ccoc3)OC2O)[C@@H]1C` (stereo partly drawn), the TGI in the experiment with BT-549 breast, in the experiment on MDA-MB-231 breast, in the experiment with MDA-MB-435, in the experiment with NCI/ADR-RES ovarian, in the experiment on SK-OV-3 ovarian and in the experiment with SNB-75 CNS was above 100 µM throughout. In the experiment on SR leukemia, this molecule registered a TGI above 100 µM.

Take `CCOc1ccccc1/C=C1\NC(=O)N(/C=C2\C(=O)Oc3ccccc3C2=O)C1=O`: the TGI in the experiment with BT-549 breast, in the experiment with MDA-MB-231 breast, in the experiment with MDA-MB-435, with NCI/ADR-RES ovarian, in the experiment with SK-OV-3 ovarian and with SNB-75 CNS was above 100 µM in each case.

`O=c1[nH]c2ccc(CC(=S)N3CCOCC3)cc2s1`: the TGI in the experiment on BT-549 breast, with MALME-3M melanoma, with MDA-MB-231 breast, in the experiment with MDA-MB-435, in the experiment with NCI/ADR-RES ovarian and with SK-OV-3 ovarian was above 100 µM in each case. This molecule also returned a TGI in the experiment on SR leukemia above 100 µM.

Consider `c1ccc(N=C2SC(=NNc3ccccc3)SC2=Nc2ccccc2)cc1`, for which the TGI in the experiment on MALME-3M melanoma, in the experiment with MDA-MB-231 breast, with MDA-MB-435, in the experiment on NCI/ADR-RES ovarian, in the experiment with SK-OV-3 ovarian and with SNB-75 CNS was above 100 µM each time. In the experiment with SR leukemia, the concentration for total growth inhibition (TGI) is above 100 µM.

`CCOc1ccc2c(c1)/C(=C(\C(Cl)=C(Cl)Cl)[N+](=O)[O-])N2`: the total growth inhibition concentration (TGI) in the experiment on BT-549 breast, with MALME-3M melanoma, in the experiment on MDA-MB-231 breast, with MDA-MB-435, in the experiment on NCI/ADR-RES ovarian and in the experiment on SK-OV-3 ovarian was above 100 µM in each case. Further, the TGI with SNB-75 CNS was above 100 µM.

Take `Cc1cccc(Nc2cn(COCc3ccccc3)c(=O)[nH]c2=O)c1`: the concentration for total growth inhibition (TGI) in the experiment with BT-549 breast was above 100 µM; with MDA-MB-435, above 100 µM; with NCI/ADR-RES ovarian, 90 µM; in the experiment with SR leukemia, above 100 µM.

Turning to `CCP(=O)(CC)C(Cl)(Cl)C(O)C(C)(C)C` (stereo not drawn), the TGI with MDA-MB-231 breast, in the experiment on MDA-MB-435, in the experiment on NCI/ADR-RES ovarian, in the experiment on SK-OV-3 ovarian, with SNB-75 CNS and in the experiment on SR leukemia was above 100 µM throughout.

Take `CCCNC(=S)N/N=C/c1cccc(C)n1`: the TGI is above 100 µM in the experiment with MALME-3M melanoma; above 100 µM with MDA-MB-231 breast; above 100 µM with MDA-MB-435; above 100 µM in the experiment with NCI/ADR-RES ovarian; above 100 µM in the experiment on SK-OV-3 ovarian; 48.3 µM with SR leukemia.

As to `N#Cc1[nH]c(=O)n(-c2ccc(Cl)cc2)c1N`, the TGI in the experiment on BT-549 breast, in the experiment with MALME-3M melanoma, in the experiment with MDA-MB-231 breast, in the experiment with MDA-MB-435, in the experiment with NCI/ADR-RES ovarian and in the experiment on SK-OV-3 ovarian was above 10 µM throughout. In the experiment with SR leukemia, this molecule returned a TGI above 10 µM.

Turning to `O=C1OCC(C#Cc2ccccc2)=C1Cl`, the GI50 (usually the concentration giving 50% growth inhibition) is 7.87 µM in the experiment on BT-549 breast; 13.4 µM with MALME-3M melanoma; 1.19 µM with MDA-MB-231 breast; 6.92 µM with MDA-MB-435; 3.32 µM with NCI/ADR-RES ovarian; 37.7 µM in the experiment on SK-OV-3 ovarian. Also, in the experiment on SNB-75 CNS, the GI50 is 19.8 µM. Also, the TGI with BT-549 breast was 33.4 µM; in the experiment on MALME-3M melanoma it was 36.5 µM; with MDA-MB-231 breast it was 6.39 µM; with MDA-MB-435, 42.6 µM; in the experiment with NCI/ADR-RES ovarian it was 13.8 µM; with SK-OV-3 ovarian, above 100 µM. In the experiment with SNB-75 CNS, the TGI stood at 46.2 µM.

`CCC1CC2CN3CCc4c([nH]c5c(-c6c(OC)ccc7c8c([nH]c67)[C@]6(C(=O)OC)CC7CC(CC)C6N(CC8)C7)c(O)ccc45)[C@](C(=O)OC)(C2)C13` (stereo partly drawn): the TGI in the experiment on BT-549 breast is 33.7 µM; in the experiment with MDA-MB-231 breast it was 47.1 µM; in the experiment on MDA-MB-435, 23.6 µM; with NCI/ADR-RES ovarian it was 53.9 µM; with SK-OV-3 ovarian, 68 µM; in the experiment on SNB-75 CNS, 48.8 µM. The molecule further showed a TGI in the experiment with SR leukemia of 45.4 µM.

Consider `CC[C@@]1(O)C(=O)OCc2c1cc1n(c2=O)Cc2c-1nc1ccccc1c2CC[Si](C)(C)C`, for which the concentration for total growth inhibition (TGI) in the experiment on BT-549 breast was above 100 µM; in the experiment on MALME-3M melanoma, 0.155 µM; in the experiment on MDA-MB-231 breast, above 53.9 µM; in the experiment on MDA-MB-435, above 100 µM; in the experiment on NCI/ADR-RES ovarian, above 100 µM; in the experiment on SK-OV-3 ovarian, 14 µM.

With `Nc1nc(Cl)cc(NCC2(CO)CCC(Cc3ccccc3)C2)n1` (stereo not drawn), the TGI in the experiment on BT-549 breast is 78.7 µM; in the experiment with MALME-3M melanoma, above 71.9 µM; with MDA-MB-231 breast it was above 100 µM; with MDA-MB-435 it was 33.8 µM; in the experiment on NCI/ADR-RES ovarian it was above 100 µM; in the experiment on SK-OV-3 ovarian, above 90.6 µM. This molecule yielded a TGI in the experiment on SNB-75 CNS above 89.9 µM.

Consider `CC1CCCC2=C1C(c1ccc(Cl)cc1)n1c(s/c(=C\c3ccc(Cl)cc3)c1=O)=N2` (stereo not drawn), for which the TGI with BT-549 breast, in the experiment on MDA-MB-231 breast, in the experiment with MDA-MB-435, with SK-OV-3 ovarian and with SNB-75 CNS was above 100 µM in each case.

On to `COc1cc(/C=C/C(C)=O)ccc1OP(=O)(O)O`, for which the TGI with BT-549 breast, with MALME-3M melanoma, with MDA-MB-231 breast, with MDA-MB-435, in the experiment on SK-OV-3 ovarian and in the experiment with SNB-75 CNS was above 100 µM throughout.
